Test results from patent US11547681B2, “N-acylethanolamide derivatives and uses thereof” (ELIEM THERAPEUTICS, INC., priority 2016, dated 2023).
Read-outs that look alike come from different tables or passages of the source. Each block holds one molecule with its values, some of them ahead of it.

Test: Simulated intestinal fluid (SIF) stability in the presence of various enzymes
Assay type: in vitro ADME
Conditions: for % Remaining of Initial: n = 1
Protocol: (§1) Studies were carried out in simulated intestinal fluid in the presence of various enzymes. Simulated intestinal fluid was prepared by dissolving 6.8 g of monobasic potassium phosphate in 1.0 L of water. Aliquots of this solution were taken and the pH was adjusted to 6.8. Individual enzymes were then spiked into aliquots for each experiment. A DMSO stock was first prepared for the test article. Aliquots of the DMSO solution were dosed into 700 μL of matrix, which had been pre-warmed to 37° C., at a final test article concentration of 1 μM. […] Samples were stored at 4° C. until the end of the experiment. After the final time point was sampled, the plate was mixed and then centrifuged at 3,000 rpm for 10 minutes. Calibration standards were prepared in matched matrix. […] Analytical conditions are outlined in Appendix 8-1.
as §1, with “10-1.” for “8-1.”
Studies were carried out in simulated intestinal fluid in the presence of various enzymes. Simulated intestinal fluid was prepared by dissolving 6.8 g of monobasic potassium phosphate in 1.0 L of water. Aliquots of this solution were taken and the pH was adjusted to 6.8. Individual enzymes were then spiked into aliquots for each experiment. A DMSO stock was first prepared for test article. Aliquots of the DMSO solution were dosed into 700 μL of matrix, which had been pre-warmed to 37° C., at a final test article concentration of 1 μM. […] Samples were stored at 4° C. until the end of experiment. After final time point was sampled, the plate was mixed and then centrifuged at 3,000 rpm for 10 minutes. Calibration standards were prepared in matched matrix. […] Analytical conditions are outlined in Appendix 13-1.
as §1, with “17-1.” for “8-1.”

[1] = SIF + Carboxypeptidase A, 0 min, 1 μM
[2] = SIF + Carboxypeptidase A, 15 min, 1 μM
[3] = SIF + Carboxypeptidase A, 30 min, 1 μM
[4] = SIF + Carboxypeptidase A, 60 min, 1 μM
[5] = SIF + Carboxypeptidase A, 120 min, 1 μM
[6] = SIF + Carboxypeptidase B, 0 min, 1 μM
[7] = SIF + Carboxypeptidase B, 15 min, 1 μM
[8] = SIF + Carboxypeptidase B, 30 min, 1 μM
[9] = SIF + Carboxypeptidase B, 60 min, 1 μM
[10] = SIF + Carboxypeptidase B, 120 min, 1 μM
[11] = SIF + Chymotrypsin, 0 min, 1 μM
[12] = SIF + Chymotrypsin, 15 min, 1 μM
[13] = SIF + Chymotrypsin, 30 min, 1 μM
[14] = SIF + Chymotrypsin, 60 min, 1 μM
[15] = SIF + Chymotrypsin, 120 min, 1 μM
[16] = SIF + Pancreatin, 120 min, 1 μM
[17] = simulated intestinal fluid with carboxypeptidase A, pH 6.8, SIF + Carboxypeptidase A, 1 μM, read-out: Half-life
[18] = simulated intestinal fluid with carboxypeptidase B, pH 6.8, SIF + Carboxypeptidase B, 1 μM, read-out: Half-life
[19] = simulated intestinal fluid with chymotrypsin, pH 6.8, SIF + Chymotrypsin, 1 μM, read-out: Half-life
[20] = simulated intestinal fluid with elastase, pH 6.8, SIF + Elastase, 1 μM, read-out: Half-life
[21] = simulated intestinal fluid with pancreatin, pH 6.8, SIF + Pancreatin, 1 μM, read-out: Half-life
[22] = simulated intestinal fluid with trypsin, pH 6.8, SIF + Trypsin, 1 μM, read-out: Half-life

% Remaining of Initial (n = 1) [1]: 100%
% Remaining of Initial (n = 1) [2]: 73%
% Remaining of Initial (n = 1) [3]: 78%
% Remaining of Initial (n = 1) [4]: 42%
% Remaining of Initial (n = 1) [5]: 18%
% Remaining of Initial (n = 1) [6]: 100%
% Remaining of Initial (n = 1) [7]: 68%
% Remaining of Initial (n = 1) [8]: 50%
% Remaining of Initial (n = 1) [9]: 33%
% Remaining of Initial (n = 1) [10]: 9.6%
% Remaining of Initial (n = 1) [11]: 100%
% Remaining of Initial (n = 1) [12]: 84%
% Remaining of Initial (n = 1) [13]: 63%
% Remaining of Initial (n = 1) [14]: 42%
% Remaining of Initial (n = 1) [15]: 21%
% Remaining of Initial (n = 1) (SIF + Elastase, 0 min, 1 μM): 100%
% Remaining of Initial (n = 1) (SIF + Elastase, 15 min, 1 μM): 70%
% Remaining of Initial (n = 1) (SIF + Elastase, 30 min, 1 μM): 50%
% Remaining of Initial (n = 1) (SIF + Elastase, 60 min, 1 μM): 33%
% Remaining of Initial (n = 1) (SIF + Elastase, 120 min, 1 μM): 17%
% Remaining of Initial (n = 1) (SIF + Pancreatin, 0 min, 1 μM): 100%
% Remaining of Initial (n = 1) (SIF + Pancreatin, 15 min, 1 μM): <1.0%
% Remaining of Initial (n = 1) (SIF + Pancreatin, 30 min, 1 μM): <1.0%
% Remaining of Initial (n = 1) (SIF + Pancreatin, 60 min, 1 μM): <1.0%
% Remaining of Initial (n = 1) [16]: <1.0%
% Remaining of Initial (n = 1) (SIF + Trypsin, 0 min, 1 μM): 100%
% Remaining of Initial (n = 1) (SIF + Trypsin, 15 min, 1 μM): 77%
% Remaining of Initial (n = 1) (SIF + Trypsin, 30 min, 1 μM): 62%
% Remaining of Initial (n = 1) (SIF + Trypsin, 60 min, 1 μM): 45%
% Remaining of Initial (n = 1) (SIF + Trypsin, 120 min, 1 μM): 23%
half-life at 1 μM [17]: 53 min
half-life at 1 μM [18]: 34 min
half-life at 1 μM [19]: 50 min
half-life at 1 μM [20]: 37 min
half-life at 1 μM [21]: < 1 min
half-life at 1 μM [22]: 53 min
Structure (SMILES): CCCCCCCCCCCCCCCC(=O)NCCOC(=O)CCC(=O)OCC(COC(=O)CCC)OC(=O)CCC (stereo not shown) [Compound I-11]

% Remaining of Initial (n = 1) [1]: 100%
% Remaining of Initial (n = 1) [2]: 77%
% Remaining of Initial (n = 1) [3]: 53%
% Remaining of Initial (n = 1) [4]: 27%
% Remaining of Initial (n = 1) [5]: 37%
% Remaining of Initial (n = 1) [6]: 100%
% Remaining of Initial (n = 1) [7]: 65%
% Remaining of Initial (n = 1) [8]: 31%
% Remaining of Initial (n = 1) [9]: 14%
% Remaining of Initial (n = 1) [10]: 8.7%
% Remaining of Initial (n = 1) [11]: 100%
% Remaining of Initial (n = 1) [12]: 82%
% Remaining of Initial (n = 1) [13]: 67%
% Remaining of Initial (n = 1) [14]: 45%
% Remaining of Initial (n = 1) [15]: 15%
% Remaining of Initial (n = 1) (SIF + Elastase, 0 min, 1 μM): 100%
% Remaining of Initial (n = 1) (SIF + Elastase, 15 min, 1 μM): 41%
% Remaining of Initial (n = 1) (SIF + Elastase, 30 min, 1 μM): 16%
% Remaining of Initial (n = 1) (SIF + Elastase, 60 min, 1 μM): 5.6%
% Remaining of Initial (n = 1) (SIF + Elastase, 120 min, 1 μM): 5.0%
% Remaining of Initial (n = 1) (SIF + Pancreatin, 0 min, 1 μM): 100%
% Remaining of Initial (n = 1) (SIF + Pancreatin, 15 min, 1 μM): 1.3%
% Remaining of Initial (n = 1) (SIF + Pancreatin, 30 min, 1 μM): 3.7%
% Remaining of Initial (n = 1) (SIF + Pancreatin, 60 min, 1 μM): 3.4%
% Remaining of Initial (n = 1) [16]: <1.0%
% Remaining of Initial (n = 1) (SIF + Trypsin, 0 min, 1 μM): 100%
% Remaining of Initial (n = 1) (SIF + Trypsin, 15 min, 1 μM): 78%
% Remaining of Initial (n = 1) (SIF + Trypsin, 30 min, 1 μM): 70%
% Remaining of Initial (n = 1) (SIF + Trypsin, 60 min, 1 μM): 55%
% Remaining of Initial (n = 1) (SIF + Trypsin, 120 min, 1 μM): <1.0%
half-life at 1 μM [17]: 47 min
half-life at 1 μM [18]: 20 min
half-life at 1 μM [19]: 49 min
half-life at 1 μM [20]: 12 min
half-life at 1 μM (simulated intestinal fluid with pancreatin, pH 6.8, SIF + Pancreatin, 1 μM, outside the sampled time range, read-out: Half-life, calculated (in parentheses)): 2.5 min
half-life at 1 μM [21]: < 15 min
half-life at 1 μM [22]: 47 min
Structure (SMILES): CCCCC/C=C\C/C=C\CCCCCCCC(=O)OCC(COC(=O)CCC(=O)OCCNC(=O)CCCCCCCCCCCCCCC)OC(=O)CCCCCCC/C=C\C/C=C\CCCCC (stereo not shown) [Compound I-13]

% Remaining of Initial [1]: 100%
% Remaining of Initial [2]: 88%
% Remaining of Initial [3]: 74%
% Remaining of Initial [4]: 60%
% Remaining of Initial [5]: 32%
% Remaining of Initial [6]: 100%
% Remaining of Initial [7]: 94%
% Remaining of Initial [8]: 87%
% Remaining of Initial [9]: 68%
% Remaining of Initial [10]: 37%
% Remaining of Initial [11]: 100%
% Remaining of Initial [12]: 103%
% Remaining of Initial [13]: 90%
% Remaining of Initial [14]: 68%
% Remaining of Initial [15]: 35%
% Remaining of Initial (SIF + Elastase, 0 min, 1 μM): 100%
% Remaining of Initial (SIF + Elastase, 15 min, 1 μM): 72%
% Remaining of Initial (SIF + Elastase, 30 min, 1 μM): 50%
% Remaining of Initial (SIF + Elastase, 60 min, 1 μM): 27%
% Remaining of Initial (SIF + Elastase, 120 min, 1 μM): 7.1%
% Remaining of Initial (SIF + Trypsin, 0 min, 1 μM): 100%
% Remaining of Initial (SIF + Trypsin, 15 min, 1 μM): 89%
% Remaining of Initial (SIF + Trypsin, 30 min, 1 μM): 82%
% Remaining of Initial (SIF + Trypsin, 60 min, 1 μM): 62%
% Remaining of Initial (SIF + Trypsin, 120 min, 1 μM): 37%
half-life at 1 μM (simulated intestinal fluid with carboxypeptidase A, pH 6.8, SIF + Carboxypeptidase A, read-out: Half-life): 75 min
half-life at 1 µM (simulated intestinal fluid with carboxypeptidase B, pH 6.8, SIF + Carboxypeptidase B, read-out: Half-life): 89 min
half-life at 1 μM (simulated intestinal fluid with chymotrypsin, pH 6.8, SIF + Chymotrypsin, read-out: Half-life): 84 min
half-life at 1 μM (simulated intestinal fluid with elastase, pH 6.8, SIF + Elastase, read-out: Half-life): 31 min
half-life at 1 μM (simulated intestinal fluid with trypsin, pH 6.8, SIF + Trypsin, read-out: Half-life): 85 min
Structure (SMILES): CCCCCCCCCCCCCCCC(=O)NCCOC(=O)CCC(=O)OC(COC(=O)CCC)COC(=O)CCC [Compound I-16]
